Assay results reported in ChEMBL document CHEMBL1201861, “Genomics of Drug Sensitity in Cancer screening data, Wellcome Trust Sanger Institute”.

Columns and labels:
Assay in all cases: cells
Conditions in all cases: Homo sapiens
EW-3 = assay type: functional, cell-based;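 note: cell viability assay read-out, IC50 reflects inhibition of growth of the EW-3 cells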
Description: SANGER: Inhibition of human EW-3 cell growth in a cell viability assay.

LS-513 = assay type: functional, cell-based
Description: SANGER: Inhibition of human LS-513 cell growth in a cell viability assay.

ALL-PO = assay type: functional, cell-based;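 note: growth inhibition of ALL-PO cells, read out by a cell viability assay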
Description: SANGER: Inhibition of human ALL-PO cell growth in a cell viability assay.

COLO-684 = assay type: functional, cell-based
Description: SANGER: Inhibition of human COLO-684 cell growth in a cell viability assay.

A498 = assay type: functional, cell-based;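 note: growth inhibition of human A498 cells, read out with a cell viability assay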
Description: SANGER: Inhibition of human A498 cell growth in a cell viability assay.

NH-12 = assay type: functional, cell-based;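 note: growth inhibition of NH-12 cells, read out with a cell viability assay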
Description: SANGER: Inhibition of human NH-12 cell growth in a cell viability assay.

NCI-H1650 = assay type: functional, cell-based;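 note: growth inhibition of human NCI-H1650 cells measured by a cell viability assay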
Description: SANGER: Inhibition of human NCI-H1650 cell growth in a cell viability assay.

IST-MES1 = assay type: functional, cell-based;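 note: growth inhibition of IST-MES1 cells, measured with a cell viability assay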
Description: SANGER: Inhibition of human IST-MES1 cell growth in a cell viability assay.

HL-60 = assay type: functional, cell-based;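 note: growth inhibition of human HL-60 cells, read out with a cell viability assay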
Description: SANGER: Inhibition of human HL-60 cell growth in a cell viability assay.

HuTu80 = assay type: functional, cell-based, HUTU-80;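 note: growth inhibition of HuTu80 human cells, determined with a cell viability readout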
Description: SANGER: Inhibition of human HUTU-80 cell growth in a cell viability assay.

KARPAS-299 = assay type: functional, cell-based
Description: SANGER: Inhibition of human KARPAS-299 cell growth in a cell viability assay.

CW-2 = assay type: functional, cell-based;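 note: growth inhibition of CW-2 cells, read out by a cell viability assay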
Description: SANGER: Inhibition of human CW-2 cell growth in a cell viability assay.

EW-11 = assay type: functional, cell-based;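 note: growth inhibition of human EW-11 cells, measured with a cell viability assay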
Description: SANGER: Inhibition of human EW-11 cell growth in a cell viability assay.

COLO-800 = assay type: functional, cell-based;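 note: growth inhibition of COLO-800 cells, read out with a cell viability assay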
Description: SANGER: Inhibition of human COLO-800 cell growth in a cell viability assay.

LNCaP-Clone-FGC = assay type: functional, cell-based
Description: SANGER: Inhibition of human LNCaP-Clone-FGC cell growth in a cell viability assay.

COR-L88 = assay type: functional, cell-based;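 note: growth inhibition of COR-L88 cells, read out with a cell viability assay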
Description: SANGER: Inhibition of human COR-L88 cell growth in a cell viability assay.

MHH-NB-11 = assay type: functional, cell-based;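 note: growth inhibition of human MHH-NB-11 cells, read out by a cell viability assay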
Description: SANGER: Inhibition of human MHH-NB-11 cell growth in a cell viability assay.

COLO-829 = assay type: functional, cell-based
Description: SANGER: Inhibition of human COLO-829 cell growth in a cell viability assay.

TGBC24TKB = assay type: functional, cell-based;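 note: growth inhibition of human TGBC24TKB cells, read out with a cell viability assay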
Description: SANGER: Inhibition of human TGBC24TKB cell growth in a cell viability assay.

LXF-289 cell line = assay type: functional, cell-based
Description: SANGER: Inhibition of human LXF-289 cell growth in a cell viability assay.

BB49-HNC = assay type: functional, cell-based;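 note: cell viability assay read-out, reported as inhibition of BB49-HNC cell growth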
Description: SANGER: Inhibition of human BB49-HNC cell growth in a cell viability assay.

EW-18 = assay type: functional, cell-based;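 note: growth inhibition of EW-18 cells, read out by a cell viability assay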
Description: SANGER: Inhibition of human EW-18 cell growth in a cell viability assay.

LB831-BLC = assay type: functional, cell-based;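 note: growth inhibition of LB831-BLC cells, read out with a cell viability assay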
Description: SANGER: Inhibition of human LB831-BLC cell growth in a cell viability assay.

OCUB-M = assay type: functional, cell-based;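 note: growth inhibition of the cancer cell line, read out through a cell viability assay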
Description: SANGER: Inhibition of human OCUB-M cell growth in a cell viability assay.

NB10 = assay type: functional, cell-based;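 note: growth inhibition of NB10 cells, read out by a cell viability assay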
Description: SANGER: Inhibition of human NB10 cell growth in a cell viability assay.

Mo = assay type: functional, cell-based
Description: SANGER: Inhibition of human Mo-T cell growth in a cell viability assay.

NKM-1 = assay type: functional, cell-based;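 note: growth inhibition of NKM-1 cells, read out with a cell viability assay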
Description: SANGER: Inhibition of human NKM-1 cell growth in a cell viability assay.

NB6 = assay type: functional, cell-based;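 note: growth inhibition of NB6 cells, read out by a cell viability assay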
Description: SANGER: Inhibition of human NB6 cell growth in a cell viability assay.

EKVX = assay type: functional, cell-based;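 note: growth inhibition of human EKVX cells, read out with a cell viability assay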
Description: SANGER: Inhibition of human EKVX cell growth in a cell viability assay.

TE-8 = assay type: functional, cell-based;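 note: growth inhibition of TE-8 cells, measured with a cell viability readout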
Description: SANGER: Inhibition of human TE-8 cell growth in a cell viability assay.

BT-474 = assay type: functional, cell-based
Description: SANGER: Inhibition of human BT-474 cell growth in a cell viability assay.

C2BBe1 = assay type: functional, cell-based;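 note: growth inhibition of C2BBe1 cells, read out through a viability assay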
Description: SANGER: Inhibition of human C2BBe1 cell growth in a cell viability assay.

RH-1 = assay type: functional, cell-based;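 note: growth inhibition of human RH-1 cells, read out with a cell viability assay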
Description: SANGER: Inhibition of human RH-1 cell growth in a cell viability assay.

SW684 = assay type: functional, cell-based;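 note: growth inhibition of human SW684 cells, measured by a cell viability assay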
Description: SANGER: Inhibition of human SW684 cell growth in a cell viability assay.

OVCAR-4 = assay type: functional, cell-based;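 note: growth inhibition of human OVCAR-4 cells, measured with a cell viability assay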
Description: SANGER: Inhibition of human OVCAR-4 cell growth in a cell viability assay.

DSH1 = assay type: functional, cell-based;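 note: growth inhibition of human DSH1 cells, measured with a cell viability readout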
Description: SANGER: Inhibition of human DSH1 cell growth in a cell viability assay.

COLO-668 = assay type: functional, cell-based
Description: SANGER: Inhibition of human COLO-668 cell growth in a cell viability assay.

CP66-MEL = assay type: functional, cell-based;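 note: growth inhibition of CP66-MEL cells determined in a cell viability assay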
Description: SANGER: Inhibition of human CP66-MEL cell growth in a cell viability assay.

KY821 = assay type: functional, cell-based;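 note: growth inhibition of human KY821 cells, read out by a cell viability assay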
Description: SANGER: Inhibition of human KY821 cell growth in a cell viability assay.

LB771-HNC = assay type: functional, cell-based;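 note: growth inhibition of LB771-HNC human cells, read out with a cell viability assay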
Description: SANGER: Inhibition of human LB771-HNC cell growth in a cell viability assay.

D-263MG = assay type: functional, cell-based
Description: SANGER: Inhibition of human D-263MG cell growth in a cell viability assay.

SW 962 = assay type: functional, cell-based;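 note: growth inhibition of human SW962 cells, read out by a cell viability assay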
Description: SANGER: Inhibition of human SW962 cell growth in a cell viability assay.

HAL-01 = assay type: functional, cell-based;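 note: growth inhibition of human HAL-01 cells, read out with a cell viability assay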
Description: SANGER: Inhibition of human HAL-01 cell growth in a cell viability assay.

BV-173 = assay type: functional, cell-based
Description: SANGER: Inhibition of human BV-173 cell growth in a cell viability assay.

LS-411N = assay type: functional, cell-based
COLO-320-HSR = assay type: functional, cell-based;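 note: growth inhibition of COLO-320-HSR cells, determined with a cell viability assay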
Description: SANGER: Inhibition of human COLO-320-HSR cell growth in a cell viability assay.

MSTO-211H = assay type: functional, cell-based
Description: SANGER: Inhibition of human MSTO-211H cell growth in a cell viability assay.

NCI-H1092 = assay type: functional, cell-based;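 note: cell growth inhibition measured with a cell viability assay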
Description: SANGER: Inhibition of human NCI-H1092 cell growth in a cell viability assay.

LU-134-A = assay type: functional, cell-based
Description: SANGER: Inhibition of human LU-134-A cell growth in a cell viability assay.

NCI-H1355 = assay type: functional, cell-based;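 note: growth inhibition of human NCI-H1355 cells, read out by a cell viability assay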
Description: SANGER: Inhibition of human NCI-H1355 cell growth in a cell viability assay.

KE-37 = assay type: functional, cell-based;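 note: growth inhibition of KE-37 cells, read out with a cell viability assay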
Description: SANGER: Inhibition of human KE-37 cell growth in a cell viability assay.

LB1047-RCC = assay type: functional, cell-based;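 note: inhibition of cell growth, determined with a cell viability assay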
Description: SANGER: Inhibition of human LB1047-RCC cell growth in a cell viability assay.

D283 Med = assay type: functional, cell-based
Description: SANGER: Inhibition of human D-283MED cell growth in a cell viability assay.

SK-UT-1 = assay type: functional, cell-based;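 note: growth inhibition of SK-UT-1 cells, measured by a cell viability assay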
Description: SANGER: Inhibition of human SK-UT-1 cell growth in a cell viability assay.

LB373-MEL-D = assay type: functional, cell-based;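 note: growth inhibition of the cell line, read out in a cell viability assay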
Description: SANGER: Inhibition of human LB373-MEL-D cell growth in a cell viability assay.

NCI-H526 = assay type: functional, cell-based;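 note: growth inhibition of the human NCI-H526 cell line, measured by a cell viability assay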
Description: SANGER: Inhibition of human NCI-H526 cell growth in a cell viability assay.

SHP77 = assay type: functional, cell-based, SHP-77;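 note: growth inhibition of human SHP-77 cells measured by a cell viability assay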
Description: SANGER: Inhibition of human SHP-77 cell growth in a cell viability assay.

Lu-65 = assay type: functional, cell-based;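 note: growth inhibition of Lu-65 cancer cells, read out by a cell viability assay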
Description: SANGER: Inhibition of human LU-65 cell growth in a cell viability assay.

MPP-89 = assay type: functional, cell-based;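 note: growth inhibition of human MPP-89 cells, read out with a cell viability assay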
Description: SANGER: Inhibition of human MPP-89 cell growth in a cell viability assay.

BB30-HNC = assay type: functional, cell-based;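 note: growth inhibition of the cultured cell line, read out by a cell viability assay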
Description: SANGER: Inhibition of human BB30-HNC cell growth in a cell viability assay.

JAR = assay type: functional, cell-based;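 note: growth inhibition of human JAR cells determined with a cell viability assay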
Description: SANGER: Inhibition of human JAR cell growth in a cell viability assay.

GI-ME-N = assay type: functional, cell-based;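 note: growth inhibition of human GI-ME-N cells, read out with a cell viability assay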
Description: SANGER: Inhibition of human GI-ME-N cell growth in a cell viability assay.

TE-1 = assay type: functional, cell-based;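 note: growth inhibition of the human TE-1 cell line, read out with a cell viability assay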
Description: SANGER: Inhibition of human TE-1 cell growth in a cell viability assay.

NCI-H510A = assay type: functional, cell-based;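 note: growth inhibition of NCI-H510A cells, read out with a cell viability assay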
Description: SANGER: Inhibition of human NCI-H510A cell growth in a cell viability assay.

L-428 = assay type: functional, cell-based
Description: SANGER: Inhibition of human L-428 cell growth in a cell viability assay.

Q: With Cn1cc(/C=C2\C(=O)Nc3cccnc32)c2ccccc21 as the compound, how does the IC50 (EW-3) read?
A: > 2000 nM

Q: And the IC50 (LS-513)?
A: > 2000 nM

Q: And the IC50 (ALL-PO)?
A: > 2000 nM

Q: And the IC50 (COLO-684)?
A: > 2000 nM

Q: What about the IC50 (A498) of the same compound?
A: > 2000 nM

Q: And the IC50 (NH-12)?
A: > 2000 nM

Q: What about the IC50 (NCI-H1650) of the same compound?
A: > 2000 nM

Q: And the IC50 (IST-MES1)?
A: > 2000 nM

Q: And the IC50 (HL-60)?
A: > 2000 nM

Q: And the IC50 (HuTu80)?
A: > 2000 nM

Q: And the IC50 (KARPAS-299)?
A: > 2000 nM

Q: What about the IC50 (CW-2) of the same compound?
A: > 2000 nM

Q: What about the IC50 (EW-11) of the same compound?
A: > 2000 nM

Q: And the IC50 (COLO-800)?
A: > 2000 nM

Q: And the IC50 (LNCaP-Clone-FGC)?
A: > 2000 nM

Q: And the IC50 (COR-L88)?
A: > 2000 nM

Q: And the IC50 (MHH-NB-11)?
A: > 2000 nM

Q: What about the IC50 (COLO-829) of the same compound?
A: > 2000 nM

Q: What about the IC50 (TGBC24TKB) of the same compound?
A: > 2000 nM

Q: What about the IC50 (LXF-289 cell line) of the same compound?
A: > 2000 nM

Q: What about the IC50 (BB49-HNC) of the same compound?
A: > 2000 nM

Q: And the IC50 (EW-18)?
A: > 2000 nM

Q: And the IC50 (LB831-BLC)?
A: > 2000 nM

Q: And the IC50 (OCUB-M)?
A: > 2000 nM

Q: And the IC50 (NB10)?
A: > 2000 nM

Q: And the IC50 (Mo)?
A: > 2000 nM

Q: What about the IC50 (NKM-1) of the same compound?
A: > 2000 nM

Q: And the IC50 (NB6)?
A: > 2000 nM

Q: What about the IC50 (EKVX) of the same compound?
A: > 2000 nM

Q: And the IC50 (TE-8)?
A: > 2000 nM

Q: What about the IC50 (BT-474) of the same compound?
A: > 2000 nM

Q: And the IC50 (C2BBe1)?
A: > 2000 nM

Q: And the IC50 (RH-1)?
A: > 2000 nM

Q: And the IC50 (SW684)?
A: > 2000 nM

Q: What about the IC50 (OVCAR-4) of the same compound?
A: > 2000 nM

Q: And the IC50 (DSH1)?
A: > 2000 nM

Q: And the IC50 (COLO-668)?
A: > 2000 nM

Q: What about the IC50 (CP66-MEL) of the same compound?
A: > 2000 nM

Q: What about the IC50 (KY821) of the same compound?
A: > 2000 nM

Q: And the IC50 (LB771-HNC)?
A: > 2000 nM

Q: What about the IC50 (D-263MG) of the same compound?
A: > 2000 nM

Q: What about the IC50 (SW 962) of the same compound?
A: > 2000 nM

Q: And the IC50 (HAL-01)?
A: > 2000 nM

Q: And the IC50 (BV-173)?
A: > 2000 nM

Q: What about the IC50 (LS-411N) of the same compound?
A: > 2000 nM

Q: What about the IC50 (COLO-320-HSR) of the same compound?
A: > 2000 nM

Q: What about the IC50 (MSTO-211H) of the same compound?
A: > 2000 nM

Q: What about the IC50 (NCI-H1092) of the same compound?
A: > 2000 nM

Q: What about the IC50 (LU-134-A) of the same compound?
A: > 2000 nM

Q: And the IC50 (NCI-H1355)?
A: > 2000 nM

Q: What about the IC50 (KE-37) of the same compound?
A: > 2000 nM

Q: And the IC50 (LB1047-RCC)?
A: > 2000 nM

Q: And the IC50 (D283 Med)?
A: > 2000 nM

Q: And the IC50 (SK-UT-1)?
A: > 2000 nM

Q: And the IC50 (LB373-MEL-D)?
A: > 2000 nM

Q: What about the IC50 (NCI-H526) of the same compound?
A: > 2000 nM

Q: What about the IC50 (SHP77) of the same compound?
A: > 2000 nM

Q: And the IC50 (Lu-65)?
A: > 2000 nM

Q: What about the IC50 (MPP-89) of the same compound?
A: > 2000 nM

Q: And the IC50 (BB30-HNC)?
A: > 2000 nM

Q: And the IC50 (JAR)?
A: 972 nM

Q: What about the IC50 (GI-ME-N) of the same compound?
A: > 2000 nM

Q: What about the IC50 (TE-1) of the same compound?
A: > 2000 nM

Q: And the IC50 (NCI-H510A)?
A: > 2000 nM

Q: And the IC50 (L-428)?
A: > 2000 nM

Q: N#C/C(=C1/Nc2ccccc2S1)c1ccnc(NCCc2cccnc2)n1 was tested. Which IC50 (EW-3) did it give?
A: > 8000 nM

Q: What about the IC50 (LS-513) of the same compound?
A: > 8000 nM

Q: And the IC50 (ALL-PO)?
A: 1790 nM

Q: And the IC50 (COLO-684)?
A: > 8000 nM

Q: What about the IC50 (A498) of the same compound?
A: > 8000 nM

Q: What about the IC50 (NH-12) of the same compound?
A: > 8000 nM

Q: And the IC50 (NCI-H1650)?
A: > 8000 nM

Q: And the IC50 (IST-MES1)?
A: > 8000 nM

Q: What about the IC50 (HL-60) of the same compound?
A: > 8000 nM

Q: What about the IC50 (HuTu80) of the same compound?
A: > 8000 nM

Q: What about the IC50 (KARPAS-299) of the same compound?
A: > 8000 nM

Q: And the IC50 (CW-2)?
A: > 8000 nM

Q: What about the IC50 (EW-11) of the same compound?
A: > 8000 nM

Q: And the IC50 (COLO-800)?
A: > 8000 nM

Q: What about the IC50 (LNCaP-Clone-FGC) of the same compound?
A: > 8000 nM

Q: What about the IC50 (COR-L88) of the same compound?
A: > 8000 nM

Q: What about the IC50 (MHH-NB-11) of the same compound?
A: > 8000 nM

Q: And the IC50 (COLO-829)?
A: > 8000 nM

Q: And the IC50 (TGBC24TKB)?
A: > 8000 nM

Q: What about the IC50 (LXF-289 cell line) of the same compound?
A: > 8000 nM

Q: And the IC50 (BB49-HNC)?
A: 1390 nM

Q: What about the IC50 (EW-18) of the same compound?
A: > 8000 nM

Q: What about the IC50 (LB831-BLC) of the same compound?
A: 5690 nM

Q: What about the IC50 (OCUB-M) of the same compound?
A: 1080 nM

Q: And the IC50 (NB10)?
A: > 8000 nM

Q: What about the IC50 (Mo) of the same compound?
A: > 8000 nM

Q: And the IC50 (NKM-1)?
A: 2310 nM

Q: And the IC50 (NB6)?
A: > 8000 nM

Q: And the IC50 (EKVX)?
A: > 8000 nM

Q: And the IC50 (TE-8)?
A: 2910 nM

Q: And the IC50 (BT-474)?
A: > 8000 nM

Q: What about the IC50 (C2BBe1) of the same compound?
A: > 8000 nM

Q: What about the IC50 (RH-1) of the same compound?
A: > 8000 nM

Q: What about the IC50 (SW684) of the same compound?
A: > 8000 nM

Q: What about the IC50 (OVCAR-4) of the same compound?
A: 5700 nM

Q: And the IC50 (DSH1)?
A: > 8000 nM

Q: What about the IC50 (COLO-668) of the same compound?
A: 4470 nM

Q: And the IC50 (CP66-MEL)?
A: > 8000 nM

Q: What about the IC50 (KY821) of the same compound?
A: > 8000 nM

Q: And the IC50 (LB771-HNC)?
A: > 8000 nM

Q: And the IC50 (D-263MG)?
A: > 8000 nM

Q: And the IC50 (SW 962)?
A: > 8000 nM

Q: And the IC50 (HAL-01)?
A: > 8000 nM

Q: What about the IC50 (BV-173) of the same compound?
A: > 8000 nM

Q: And the IC50 (LS-411N)?
A: > 8000 nM

Q: What about the IC50 (COLO-320-HSR) of the same compound?
A: > 8000 nM

Q: What about the IC50 (MSTO-211H) of the same compound?
A: > 8000 nM

Q: What about the IC50 (NCI-H1092) of the same compound?
A: > 8000 nM

Q: What about the IC50 (LU-134-A) of the same compound?
A: > 8000 nM

Q: What about the IC50 (NCI-H1355) of the same compound?
A: 1110 nM

Q: And the IC50 (KE-37)?
A: > 8000 nM

Q: And the IC50 (LB1047-RCC)?
A: 1680 nM

Q: And the IC50 (D283 Med)?
A: > 8000 nM

Q: What about the IC50 (SK-UT-1) of the same compound?
A: 7500 nM

Q: What about the IC50 (LB373-MEL-D) of the same compound?
A: > 8000 nM

Q: And the IC50 (NCI-H526)?
A: > 8000 nM

Q: And the IC50 (SHP77)?
A: > 8000 nM

Q: What about the IC50 (Lu-65) of the same compound?
A: > 8000 nM

Q: What about the IC50 (MPP-89) of the same compound?
A: 5200 nM

Q: What about the IC50 (BB30-HNC) of the same compound?
A: > 8000 nM

Q: What about the IC50 (JAR) of the same compound?
A: > 8000 nM

Q: And the IC50 (GI-ME-N)?
A: > 8000 nM

Q: And the IC50 (TE-1)?
A: > 8000 nM

Q: What about the IC50 (NCI-H510A) of the same compound?
A: > 8000 nM

Q: What about the IC50 (L-428) of the same compound?
A: > 8000 nM
